{
  "source": "patent US6498155B1",
  "about": "“Methods of treating thrombocytopenia” (SmithKline Beecham Corporation, priority 1998, dated 2002)",
  "key": {"32D-mpl cells": {"test_system": "32D-mpl cells", "conditions": "concentration 1-30 uM", "method": "(§1) 32D-mpl cells express Tpo-R and their survival is dependent on the presence of TPO. […] In this assay, purified human CD34+ progenitor cells were incubated in liquid culture with test compounds for 10 days and the number of cells expressing the transmembrane glycoprotein CD41 (gpIIb), a megakaryocytic marker, was then measured by flow cytometry (see Cwirla, S. E. et al Science, 1997, 276, 1696-1699)."}, "[1]": {"test_system": "purified human CD34+ progenitor cells", "conditions": "concentrations 1-30 uM; 10 days liquid culture, CD41 by flow cytometry", "method": "as §1"}},
  "data": [
    {"smiles": "Cl.Cl.Cl.Cl.Cl.Cl.Cl.Cl.O.O.c1cc(CN2CCCNCCNCCCNCC2)ccc1CN1CCCNCCNCCCNCC1", "note": "[Example 1, 1,1′-[1,4-Phenylenebis(methylene)]bis[1,4.8,11-tetraazacyclotetradecane]octahydrochloride Dihydrate]", "values": [
      {"measurement": "proliferation of 32D-mpl cells", "setting": "32D-mpl cells", "value": "promoted the proliferation"},
      {"measurement": "activity in the CD41 megakaryocytic assay", "setting": "[1]", "value": "showed activity"}
    ]}
  ]
}
